Experimental data reported in the supplement of paper PMC10307832.

What follows are cell lines tested with CC(O)(CS(=O)(=O)c1ccc(F)cc1)C(=O)Nc1ccc(C#N)c(C(F)(F)F)c1 [Bicalutamide] + Nc1ncn([C@H]2C[C@H](O)[C@@H](CO)O2)c(=O)n1 [Decitabine] (partner 2 µM) (assay: relative viability (nuclei count vs DMSO), 5 days (fraction); higher = more cells survive). Settings: first compound 0.8 µM.
In short: (§1)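 Relative viability was taken as the ratio of nuclei in treated wells to nuclei in vehicle wells. Lung cancer cell lines in 1536-well plates received compounds by pin tool one day after seeding, either one drug alone or a fixed anchor-drug dose plus five library-drug doses (not always all listed) in √10 steps. Nuclei were counted on 4× images after 5 days of treatment, and values are medians of duplicate plates.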

Row | Cell Line | relative viability
1 | LU99A | 1.02
2 | BEN | 0.838
3 | HARA | 0.536
4 | NCI-H1648 | 0.475
5 | NCI-H2023 | 0.248
6 | NCI-H520 | 0.646
7 | SW 1573 | 0.659
8 | SK-LU-1 | 0.791
9 | NCI-H661 | 0.557

Same assay, conditions: first compound 2.53 µM

Row | Cell Line | relative viability
10 | NCI-H522 | 0.632
11 | NCI-H838 | 0.371
12 | NCI-H1650 | 0.436
13 | NCI-H2009 | 0.38
14 | NCI-H1993 | 0.627
15 | PC-14 | 0.204
16 | LCLC-103H | 0.756
17 | NCI-H596 | 0.983
18 | EMC-BAC-2 | 0.892
19 | NCI-H2087 | 0.286
20 | HCC-366 | 0.327
21 | NCI-H1666 | 0.723
22 | NCI-H647 | 0.338
23 | LK-2 | 0.305
24 | NCI-H2126 | 0.528
25 | NCI-H2342 | 0.843
26 | SK-MES-1 | 0.416
27 | H3255 | 0.525
28 | COR-L23 | 0.367

Row | Cell Line | relative viability
29 | COR-L 105 | 0.63
30 | LOU-NH91 | 0.836
31 | ChaGo-K-1 | 0.551
32 | NCI-H2170 | 0.496
33 | NCI-H3122 | 0.455
34 | HOP-62 | 0.221
35 | HCC-44 | 0.959
36 | A549 | 0.248
37 | SW 900 | 0.476
38 | LU99A | 0.719
39 | BEN | 0.7
40 | HARA | 0.574
41 | NCI-H1648 | 0.458
42 | NCI-H2023 | 0.233
43 | NCI-H520 | 0.51
44 | SW 1573 | 0.441
45 | SK-LU-1 | 0.61
46 | NCI-H661 | 0.549

These cell lines were tested with CC(O)(CS(=O)(=O)c1ccc(F)cc1)C(=O)Nc1ccc(C#N)c(C(F)(F)F)c1 [Bicalutamide] + NC(=O)Nc1cc(-c2cccc(F)c2)sc1C(=O)N[C@H]1CCCNC1 [AZD7762] (partner 0.2 µM) in the same assay as above. Settings: first compound 0.08 µM.
In short: as §1

Row | Cell Line | relative viability
47 | NCI-H522 | 0.762
48 | NCI-H838 | 0.965
49 | NCI-H1703 | 0.123
50 | NCI-H1993 | 0.539
51 | PC-14 | 0.314
52 | LCLC-103H | 0.829
53 | NCI-H596 | 1.13
54 | EMC-BAC-2 | 1.05
55 | NCI-H2087 | 1.29
56 | HCC-366 | 0.392
57 | NCI-H1666 | 0.928
58 | NCI-H647 | 0.512
59 | LK-2 | 0.432
60 | NCI-H2126 | 0.994
61 | NCI-H2342 | 0.553
62 | H3255 | 0.949
63 | LOU-NH91 | 0.725
64 | ChaGo-K-1 | 0.883
65 | NCI-H2170 | 0.805
66 | NCI-H3122 | 0.98
67 | HOP-62 | 0.567
68 | HCC-44 | 1.02
69 | SW 900 | 0.707
70 | LU99A | 0.431
71 | BEN | 0.742
72 | HARA | 0.382
73 | CAL-12T | 0.729

Same assay, conditions: first compound 0.253 µM

Row | Cell Line | relative viability
74 | NCI-H522 | 0.849
75 | NCI-H838 | 0.958
76 | NCI-H1703 | 0.117
77 | NCI-H1993 | 0.744
78 | PC-14 | 0.329
79 | LCLC-103H | 0.791
80 | NCI-H596 | 1.04
81 | EMC-BAC-2 | 1
82 | NCI-H2087 | 1.29
83 | HCC-366 | 0.229
84 | NCI-H1666 | 0.759
85 | NCI-H647 | 0.397
86 | LK-2 | 0.254
87 | NCI-H2126 | 0.918
88 | NCI-H2342 | 0.478
89 | H3255 | 0.791
90 | LOU-NH91 | 0.653
91 | ChaGo-K-1 | 0.792
92 | NCI-H2170 | 0.817
93 | NCI-H3122 | 1
94 | HOP-62 | 0.494
95 | HCC-44 | 1.05
96 | SW 900 | 0.645
97 | LU99A | 0.286
98 | BEN | 0.563
99 | CAL-12T | 0.655

Same assay, conditions: first compound 0.8 µM

Row | Cell Line | relative viability
100 | NCI-H522 | 0.916
101 | NCI-H838 | 1.02
102 | NCI-H1703 | 0.162
103 | NCI-H1993 | 0.919
104 | PC-14 | 0.443
105 | LCLC-103H | 0.8
106 | NCI-H596 | 1.08
107 | EMC-BAC-2 | 1.09
108 | NCI-H2087 | 1.58
109 | HCC-366 | 0.332
110 | NCI-H1666 | 0.873
111 | NCI-H647 | 0.549
112 | LK-2 | 0.442
113 | NCI-H2126 | 1.01
114 | NCI-H2342 | 0.528
115 | H3255 | 1.11
116 | LOU-NH91 | 0.793
117 | ChaGo-K-1 | 0.944
118 | NCI-H2170 | 1.26
119 | NCI-H3122 | 1.05
120 | HOP-62 | 0.848
121 | HCC-44 | 1.02
122 | SW 900 | 0.745
123 | LU99A | 0.544
124 | BEN | 0.874
125 | HARA | 0.368
126 | NCI-H1648 | 0.736
127 | CAL-12T | 0.703

Same assay, conditions: first compound 2.53 µM

Row | Cell Line | relative viability
128 | NCI-H522 | 0.808
129 | NCI-H838 | 0.909
130 | NCI-H1703 | 0.174
131 | NCI-H1993 | 0.58
132 | PC-14 | 0.353
133 | LCLC-103H | 0.814
134 | NCI-H596 | 1.11
135 | EMC-BAC-2 | 0.735
136 | NCI-H2087 | 1.26
137 | HCC-366 | 0.281
138 | NCI-H1666 | 0.801
139 | NCI-H647 | 0.321
140 | LK-2 | 0.495
141 | NCI-H2126 | 0.856
142 | NCI-H2342 | 0.568
143 | H3255 | 0.823
144 | LOU-NH91 | 0.751
145 | ChaGo-K-1 | 0.858
146 | NCI-H2170 | 0.902
147 | NCI-H3122 | 1.01
148 | HOP-62 | 0.432
149 | HCC-44 | 1.01
150 | SW 900 | 0.586
151 | LU99A | 0.252
152 | BEN | 0.675
153 | HARA | 0.262
154 | NCI-H1648 | 0.686
155 | CAL-12T | 0.68

The cell lines below were run with CC(O)(CS(=O)(=O)c1ccc(F)cc1)C(=O)Nc1ccc(C#N)c(C(F)(F)F)c1 [Bicalutamide] + CS(=O)(=O)N1CCN(Cc2cc3nc(-c4cccc5[nH]ncc45)nc(N4CCOCC4)c3s2)CC1 [Pictilisib] (partner 1 µM) in the same assay as above. Settings: first compound 0.08 µM.
In short: as §1

Row | Cell Line | relative viability
156 | NCI-H838 | 0.589
157 | NCI-H1650 | 0.701
158 | EBC-1 | 0.41
